Data published in US20210015942A1, “ANTIBODY PROTAC CONJUGATES” (Development Center for Biotechnology, priority 2018, published 2021).

What was measured:
[1] = target: BRD4 (Homo sapiens, UniProt O60885); settings: BT-474 cells (HER2-positive), 24 hours treatment, various concentrations up to 1 μM, western blot
[2] = system: BRD2, BRD3, and BRD4; settings: read-out: EC50, inhibitor of BRD2, BRD3, and BRD4; cited from earlier work

BRD4 protein degradation [1]	Structure (SMILES)	EC50 [2] [nM]
as effective as ARV-825	Cc1sc2c(c1C)C(c1ccc(Cl)cc1)=N[C@@H](CC(=O)Nc1ccc(OCCOCCNCCOCCNc3cccc4c3C(=O)N(C3CCC(=O)NC3=O)C4=O)cc1)c1nnc(C)n1-2 (stereo partly drawn) [Compound 5]	
cannot degrade BRD4 protein	Cc1sc2c(c1C)C(c1ccc(Cl)cc1)=N[C@@H](CC(=O)Nc1ccc(OCCOCCN(CCOCCNc3cccc4c3C(=O)N(C3CCC(=O)NC3=O)C4=O)C(=O)OCc3ccc(NC(=O)[C@H](CCCNC(N)=O)NC(=O)[C@@H](NC(=O)CCCCCN4C(=O)C=CC4=O)C(C)C)cc3)cc1)c1nnc(C)n1-2 (stereo partly drawn) [Compound 7]	
	Cc1sc2c(c1C)C(c1ccc(Cl)cc1)=N[C@@H](CC(=O)Nc1ccc(O)cc1)c1nnc(C)n1-2 [OTX015]	10 to 19
